From US7091204B2, “Sulfonamides” (SmithKline Beecham Corporation, priority 2001, dated 2006)

Biological target: T1, human and rat GPR-14 (UniProt Q9UKP6)
T1 sequence (Q9UKP6 1-389): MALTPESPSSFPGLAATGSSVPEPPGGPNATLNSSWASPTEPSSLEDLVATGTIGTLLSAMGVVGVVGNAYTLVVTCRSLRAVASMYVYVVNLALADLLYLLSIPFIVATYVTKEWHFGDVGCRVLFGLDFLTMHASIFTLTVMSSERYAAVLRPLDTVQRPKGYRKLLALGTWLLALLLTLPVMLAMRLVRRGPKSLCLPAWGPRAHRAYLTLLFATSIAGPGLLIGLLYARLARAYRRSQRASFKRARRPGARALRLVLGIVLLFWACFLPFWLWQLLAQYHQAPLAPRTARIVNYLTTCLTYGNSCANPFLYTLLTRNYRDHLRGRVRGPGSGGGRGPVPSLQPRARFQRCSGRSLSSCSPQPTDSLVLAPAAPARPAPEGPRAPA
Test: Radioligand binding: [125I] h-U-II binding to HEK-293 cell membranes
Conditions: HEK-293 cell membranes with stable cloned GPR-14; 200 pM [125I] h-U-II; species for the value not stated
Experimental: HEK-293 cell membranes containing stable cloned human and rat GPR-14 (20 ug/assay) were incubated with 200 pM [125I] h-U-II (200 Ci/mmol^−1 in the presence of increasing concentrations of test compounds in DMSO (0.1 nM to 10 uM), in a final incubation volume of 200 ul (20 mM Tris-HCl, 5 mM MgCl2). Incubation was done for 30 minutes at room temperature followed by filtration GF/B filters with Brandel cell harvester. ^125I labeled U-II binding was quantitated by gamma counting. Nonspecific binding was defined by ^125I U-II binding in the presence of 100 nM of unlabeled human U-II. Analysis of the data was performed by nonlinear least square fitting.

A Ki of 590 nM was found for CN1CC[C@@H](Oc2cc(NS(=O)(=O)c3cnc(Cl)nc3OCC(F)(F)F)ccc2Cl)C1 [Example 14, 2-Chloro-4-(2,2,2-trifluoro-ethoxy)-pyrimidine-5-sulfonic acid [4-chloro-3-((R)-1-methyl-pyrrolidin-3-yloxy)-phenyl]-amide] in this work.
